Assay results from patent US9538745B2, “Methods for the cryopreservation of cells” (The General Hospital Corporation, priority 2006, dated 2017).
Like-named read-outs stand apart in the source and are kept apart here.

Tests used:
[1] = Vitrification of CPA laden solutions: visible opacity after plunging into liquid nitrogen; format: physicochemical
Description: One convenient way for determining non-vitrification is the appearance of opacity as a result of ice formation when freezing solutions in a straw. If there is no visible opacity, it is called apparent vitrification. Although opacity could be easily identified in the traditional plastic straw using the naked eye, it is very difficult to do so for the quartz micro-capillary due to its small dimension. Therefore, an experimental setup shown in FIG. 10 was designed for visualization of opacity during cooling by directing two focused lights on the capillary held against a dark background for all the devices shown in FIG. 1 except the stainless steel micro-capillary. […] This setup was used to determine the threshold (minimum) CPA concentration required to completely avoid opacity during cooling. […] Various total CPA concentrations from 12% to 30% by volume with 2% increments were studied using both the open pulled straw and the thin walled quartz micro-capillary. Since 0.2-1 M sucrose or trehalose has been used in essentially all studies for cryopreservation of mammalian oocytes by both slow freezing and vitrification, further studies were also performed using the quartz micro-capillary for solutions with 0.5 M sucrose or trehalose plus 1.5 M, 2.0 M, and 2.5 M PROH, respectively. The solutions can be loaded into the open pulled straw and quartz micro-capillaries by capillary action while it can be expelled out of the capillaries by using a micro-syringe attached with a soft PEP polymer needle tip to push from the end of the capillaries with a bigger opening.

[2] = Critical cooling rate to achieve vitrification (Vcc) from Boutron's semi-empirical theory and DSC constant K4; format: physicochemical
Description: The critical cooling rate to achieve vitrification (Vcc) is a function of the concentration of cryoprotectant. It has been extensively studied in the case of 1,2-propanediol and other alcohols with relevance in cryobiology, although mainly in the range of cooling rates achievable by differential scanning calorimetry (DSC) techniques. However, it is possible to obtain estimates of the critical cooling rates at other […]. The presence of sugars in equimolar concentrations has shown to have no effect on Vcc in the case of monosaccharides and little effect in the case of sucrose for the concentration used in these studies (0.3 M)(Kuleshova et al., Cryobiology 38:199-130, 1999). The Vcc can be inferred from Boutron's semi-empirical theory of glass forming tendency (Boutron, Cryobiology 23:88-102, 1986); it is given by:
To is the initial temperature of crystallization and xg is the amount of ice formed at the critical cooling rate. Many studies in the literature consider a solution to be vitrified when xg≦10^−6 (Liu and McGrath, Proc. 2005 IEEE Eng. Med. Biol. 27th Ann. Conference, p. 7501-7504, 2005). K4 is a constant dependent of the solution and can be determined by DSC. Although there is not data for K4 in the available literature for our solution, some estimation can be done. The values of K4 for 40%, 37.5% and 35% (w/w) of aqueous solutions of 1,2 propanediol are 24.1° C./min, 54.1° C./min and 151° C./min (Ren et al., Cryobiology 31:47-56, 1994). These values of K4 give rise to Vcc values of 8.0×10^2° C./min, 1.8×10^3° C./min and 5.0×10^3° C./min, respectively. So, a tentative value of […] for 1.8 M of 1,2-propanediol is ≈10^4° C./min. […] The exponential fitting of the data is justified by the theory (Ren et al., supra).

R1 murine ES cell line [3] = test: Attachment efficiency of ES cells post vitrification; format: cell-based; details: 0.5 M trehalose, 2 M PROH, or both; QMC plunged into liquid nitrogen; day 1; FIG. 15
Description: (§1) For the purpose of evaluating the maintenance of embryonic stem cell pluripotency, a green fluorescent protein (GFP)-reporter cell system was used. The R1 murine ES cell line which expresses GFP under control of the Oct4 promoter was kindly provided by Andras Nagy (U. Toronto)(Nagy et al., Proc. Nat. Acad. Sci. USA 90:8424, 1993). The ES cell maintenance media consisted of Knockout DMEM+15% Knockout Serum Replacement (Invitrogen, Carlsbad, Calif.) containing 1000 U/ml LIF (Chemicon, Temecula, Calif.). Feeder layer-free ES cells were continually passaged in 0.1% gelatin-coated 75 cm^2 flasks in 5% CO2 humidified air at 37° C.
On the day of experiment, the attached cells were lightly trypsinized for 3-5 minutes and collected. The cells were pelleted at 100×g for 5 minutes and resuspended in cold stem cell media supplemented with 1.5 M 1,2-propanediol (Sigma, St Louis, Mo.) and incubated on ice for 10 minutes. […]
Cell attachment and growth was determined by counting the number of cells per field under a 10× objective. […] The attachment efficiency was calculated as the ratio of the total number of cells per field of a cryopreserved sample to that of the control non-frozen sample at day 1. To assess the proliferation of the attached cells, the total number of cells per field was further monitored for 4 days.

R1 murine ES cell line [4] = test: Pluripotent properties of ES cells post vitrification (Oct-4, SSEA-1, alkaline phosphatase); format: cell-based; details: 2 M 1,2-propanediol; ultra-fast cooling in QMC
Description: as §1
On the day of experiment, the attached cells were lightly trypsinized for 3-5 minutes and collected. The cells were pelleted at 100×g for 5 minutes and resuspended in cold stem cell media supplemented with 1.5 M 1,2-propanediol (Sigma, St Louis, Mo.) and incubated on ice for 10 minutes. The cells were then spun down at 100×g for 3-5 minutes and resuspended in 1 ml first vitrification solution for 10 minutes. The cells were then spun down at 100×g for 3-5 minutes and resuspended in the second solution at 10×10^6/ml for another 10 minutes. […]

primary rat hepatocytes = format: cell-based
Procedure: The cell viability of hepatocytes was determined immediately post-cryopreservation in quartz micro-capillaries (QMC) in the presence of either no CPA; 0.3 M sucrose; 1.5 M 1,2-propanediol (PROH); 1.5 M PROH and 0.3 M sucrose; or 2.0 M PROH and […]. The number of viable cells was determined in both vitrified samples as well as non-vitrified controls (i.e., no freezing). Cell viability was quantified by the exclusion of trypan blue. […] There was only ˜35% survival for cells loaded with 1.5 M PROH prior to cryopreservation. Sucrose (0.3 M) was then added to the cryopreservation solution with 1.5-2 M PROH. […] When 0.3 M sucrose was added to the cryopreservation solution, the immediate viability jumped to ˜75%.

[5] = Ren et al., cited from earlier work
[6] = both open pulled straw and quartz micro-capillary, FIG. 14

CC(O)CO (centres unmarked) [1,2-propanediol]
appearance of solution in quartz micro-capillary after plunging into liquid nitrogen ([1]; 1 M 1,2-propanediol (in FHM)): opaque | appearance of solution in quartz micro-capillary after plunging into liquid nitrogen ([1]; 2 M 1,2-propanediol (in FHM)): clear | appearance of solution in quartz micro-capillary after plunging into liquid nitrogen ([1]; 7% v 1,2-propanediol in FHM media, FIG. 10): whitish appearance | appearance of solution in quartz micro-capillary after plunging into liquid nitrogen ([1]; 14% v 1,2-propanediol in FHM media, FIG. 10): clear appearance | threshold concentration lower than that of ethylene glycol (EG) [1, 6]: ~5 % v | threshold concentration lower than that of the combination of EG and PROH in a 1:1 ratio [1, 6]: 2.5 % v | threshold concentration for the complete absence of opacity ([1]; micro-capillary): ~2 M | K4, tentative value ([2]; 1.8 M): ≈ 10^4 ° C./min | Vcc (critical cooling rate to achieve vitrification) ([2]; 35% (w/w) aqueous solution): 5.0×10^3 ° C./min | Vcc (critical cooling rate to achieve vitrification) ([2]; 37.5% (w/w) aqueous solution): 1.8×10^3 ° C./min | Vcc (critical cooling rate to achieve vitrification) ([2]; 40% (w/w) aqueous solution): 8.0×10^2 ° C./min | attachment efficiency (normalized to control) (R1 murine ES cell line [3]): Only a minimum amount of cells can attach | pluripotent properties post-vitrification (Oct-4, SSEA-1, alkaline phosphatase staining) (R1 murine ES cell line [4]): retained their pluripotent properties | cell survival / immediate viability (exclusion of trypan blue) (primary rat hepatocytes): ~35% | K4 ([5]; 35% (w/w) aqueous solution): 151 ° C./min | K4 ([5]; 37.5% (w/w) aqueous solution): 54.1 ° C./min | K4 ([5]; 40% (w/w) aqueous solution): 24.1 ° C./min

OCCO [Ethylene glycol (EG), ethylene glycol]
threshold concentration for the complete absence of opacity [1]: ~4 M

OC[C@H]1O[C@@](CO)(O[C@H]2O[C@H](CO)[C@@H](O)[C@H](O)[C@H]2O)[C@@H](O)[C@@H]1O [sucrose]
cell survival / immediate viability (exclusion of trypan blue) (primary rat hepatocytes): less than 10%

OC[C@H]1O[C@H](O[C@H]2O[C@H](CO)[C@@H](O)[C@H](O)[C@H]2O)[C@H](O)[C@@H](O)[C@@H]1O [trehalose]
attachment efficiency (normalized to control) (R1 murine ES cell line [3]): Only a minimum amount of cells can attach
